# Measurements taken from patent US6570006B1, “Bacterial gene and method of treating a gram negative bacterial infection” (priority 1998, dated 2003).
# Entries after “also recorded” stand apart in the source; their conditions may differ. Like-named read-outs stand apart in the source and are kept apart here.
# Experiments:
# [1] = test system: CWG312 (F470 with a waaY::aacC1 insertion); assay: SDS and novobiocin sensitivity testing (MIC), waaY mutant; type: cell-based, Escherichia coli; conditions: for MIC / sensitivity compared with F470 (in words): strain CWG312 (waaY) versus F470 parent
# Procedure: (§1) Bacterial Strains and Growth Conditions—E. coli F470 is an R-LPS derivative of an O8:K27 strain (Schmidt, G. et al, 1969), and serves as the prototype for R1 core OS studies. Derivatives of F470 used in this study include CWG296 (F470 with a waaP::aacC1 insertion), CWG297 (F470 with a waaQ::aacC1 insertion), and CWG312 (F470 with a waaY::aacC1 insertion). Bacteria were grown in Luria-Bertani (LB) broth at 37° C. Growth media were supplemented with ampicillin (100 μg/mL), gentamicin (15 μg/mL), or chloramphenicol (30 μg/mL) when necessary.
# (§2) Sodium dodecyl sulfate (SDS) and Novobiocin Sensitivity Testing—Two-fold serial dilutions of SDS (200→0.1 mg/mL) and novobiocin (200→1.6 μg/mL) were made in 5 mL volumes of LB. Each series of tubes was point inoculated from an overnight culture of the strain to be tested, and then incubated with shaking at 37° C. Growth was scored as positive if after 8 hours the culture was visibly turbid (i.e. A600>0.2).
# To test this possibility, strain CWG312 was derived by insertion of the aacC1 gene into the unique SnaBI site in the waaY coding region of F470 (FIG. 2B). The LPS from the resulting mutant migrated similarly to that of the F470 parent in sodium dodexyl sulphate-polyacrylamine gel electrophoresis (SDS-PAGE) (data not shown), precluding any significant effect of the mutation on core OS extension.
# [2] = test system: CWG296 (waaP) + pWQ909; assay: SDS and novobiocin sensitivity testing (MIC), complemented waaP mutant; type: cell-based, Escherichia coli; conditions: for resistance after introduction of multicopy waaP (in words): CWG296 with plasmid pWQ909
# Procedure: as §1
# Cloning and Expression of waaP for Complementation—Oligonucleotide primers for the amplification of waaP from the F470 chromosome were designed to introduce appropriate restriction sites for cloning. The forward primer (5′-TGTGGATccAAATAGTGGGCACTCA-3′)(SEQ. I.D. No. 7) introduced a BamHI site (underlined) 32 base pairs downstream of the waaP stop codon, and the complementary reverse primer (5′-GGGTGGTCcatATGGTTGAACTTAA-3′)(SEQ. I.D. No. 8) introduced an NdeI site (underlined) overlapping the waaP start codon (bases shown in lower case indicate mismatches between the primer and chromosomal sequences). The coding region for waaP alone was subsequently isolated as a BamHI-NdeI fragment, and cloned behind the arabinose-inducible PBAD promoter of the expression vector pBAD18, to generate plasmid pWQ909. L-arabinose was used at a final concentration of 0.002% to induce expression of WaaP from plasmid pWQ909.
# as §2
# Strain CWG296 was derived by insertion of the aacC1 gene into the unique NruI site in the waaP coding region of F470 (FIG. 2B). […]
# [3] = test system: CWG297 (F470 with a waaQ::aacC1 insertion); assay: SDS and novobiocin sensitivity testing (MIC), waaQ mutant; type: cell-based, Escherichia coli; conditions: for MIC / sensitivity compared with F470 (in words): strain CWG297 (waaQ) versus F470 parent
# Procedure: as §1, §2
# Strain CWG297 was derived by insertion of the aacC1 gene into the unique NruI site in the waaQ coding region of F470 (FIG. 2B).
# [4] = test system: CWG296 (F470 with a waaP::aacC1 insertion); assay: SDS and novobiocin sensitivity testing (MIC), waaP mutant; type: cell-based, Escherichia coli; conditions: for MIC: Escherichia coli, LB, 37° C., 8 hours; for MIC / sensitivity of the mutant (in words): strain CWG296 (waaP); for increase in the susceptibility: strain CWG296 (waaP) versus F470 parent
# Procedure: as §1, §2
# Strain CWG296 was derived by insertion of the aacC1 gene into the unique NruI site in the waaP coding region of F470 (FIG. 2B). The resulting mutant was hypersensitive to novobiocin and SDS (Table II), as expected based on results from previous studies (Helander, I. M. et al., 1989; Parker, C. T. et al., 1992).
# [5] = test system: E. coli F470 (parent); assay: SDS and novobiocin sensitivity testing (MIC), parent strain; type: cell-based; conditions: Escherichia coli, LB, 37° C., growth scored after 8 hours, read-out: Minimum inhibitory concentration (MIC) novobiocin
# Procedure: as §1, §2
# [6] = Escherichia coli, 8 h, read-out: Minimum inhibitory concentration (MIC) novobiocin
smiles,measurement,setting,value
"CCCCCCCCCCCCOS(=O)(=O)[O-].[Na+] [SDS, Sodium dodecyl sulfate]",MIC / sensitivity compared with F470 (in words),[1]; sulfate,slightly less than for F470; also recorded: minor increase in the sensitivity
same,resistance after introduction of multicopy waaP (in words),[2],restored wild-type levels of resistance
same,MIC / sensitivity compared with F470 (in words),[3]; sulfate,slightly less than for F470; also recorded: minor increase in the sensitivity
same,MIC,[4]; read-out: Minimum inhibitory concentration (MIC) SDS,100 µg/mL
same,sensitivity of the mutant (in words),[4],hypersensitive
same,increase in the susceptibility,[4],> 1000 fold
CO[C@@H]1[C@@H](OC(N)=O)[C@@H](O)[C@H](Oc2ccc3c(O)c(NC(=O)c4ccc(O)c(CC=C(C)C)c4)c(=O)oc3c2C)OC1(C)C [novobiocin],MIC,[1]; [6],100 µg/mL
same,MIC / sensitivity compared with F470 (in words),[1],slightly less than for F470; also recorded: minor increase in the sensitivity
same,resistance after introduction of multicopy waaP (in words),[2],restored wild-type levels of resistance
same,MIC,"[2]; Escherichia coli, strain CWG296 (waaP) + pWQ909, LB, 37° C., 8 hours, read-out: Minimum inhibitory concentration (MIC) novobiocin",100 µg/mL
same,MIC,[3]; [6],100 µg/mL
same,MIC / sensitivity compared with F470 (in words),[3],slightly less than for F470; also recorded: minor increase in the sensitivity
same,MIC,[5],200 µg/mL
same,MIC,[4]; read-out: Minimum inhibitory concentration (MIC) novobiocin,6.3 µg/mL
same,sensitivity of the mutant (in words),[4],hypersensitive
same,increase in the susceptibility,[4],32 fold
